Measurements taken from PMC12090776 (2025).

Experiments:
SINV 6K = SINV 6K (Sindbis virus, UniProt P03316); experiment: UV-Vis absorption of retained compound after overnight dialysis; format: binding; details: 3-4x molar excess compound, 1 h on ice, pH 7.6, 0.015% DDM; EGFP negative control
SARS-CoV-2 E = SARS-CoV-2 E (Severe acute respiratory syndrome coronavirus 2, UniProt P0DTC4); format: binding
Chain of SARS-CoV-2 E (P0DTC4 whole entry): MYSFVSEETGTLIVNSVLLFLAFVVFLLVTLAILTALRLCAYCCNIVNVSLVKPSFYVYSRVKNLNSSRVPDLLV

Chain of SINV 6K (P03316 752-806): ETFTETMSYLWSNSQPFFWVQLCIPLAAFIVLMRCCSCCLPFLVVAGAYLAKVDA

| Structure (SMILES) | UV-Vis absorption of retained compound after overnight dialysis (SINV 6K) | UV-Vis absorption of retained compound after overnight dialysis (SARS-CoV-2 E) |
| --- | --- | --- |
| CCN(c1nc(N)c(C(=O)N=C(N)N)nc1Cl)C(C)C [EIPA] | Both 6K (Fig. 2B) and E (Fig. 2C) proteins bind to the compounds | Both 6K (Fig. 2B) and E (Fig. 2C) proteins bind to the compounds |
| N=C(N)NC(=O)c1nc(Cl)c(N2CCCCCC2)nc1N [HMA] | Both 6K (Fig. 2B) and E (Fig. 2C) proteins bind to the compounds | Both 6K (Fig. 2B) and E (Fig. 2C) proteins bind to the compounds |
